Where no end group is shown, it is not given here.
How the values were obtained:
Aβ [1] = target: T1, Aβ (Homo sapiens, UniProt P05067); test: Determination of Aβ binding region in VEGF, immobilized GST-fusion proteins; conditions: GST-fusion proteins 200 nM immobilized; 200 nM Aβ
T1 construct: Aβ (Aβ) is the major component of senile plaques and is derived from the amyloid precursor protein by proteolytic cleavage
Description: The purified proteins were analyzed with 12% SDS-polyacrylmide gel electrophoresis. […] After blocking nonspecific binding sites with 3% BSA/PBS, 200 nM of Aβ was added to each well and allowed to bind to immobilized proteins. Unbound Aβ was removed and the bound Aβ was determined with rabbit anti-Aβ antibody followed by anti-rabbit antibody conjugated with horse radish peroxidase.

[2] = target: T2, Aβ-VEGF binding (VEGF, biotinylated Aβ1-42) (Homo sapiens, UniProt P15692); test: Aβ-VEGF binding in presence of triamterene; conditions: 100 nM VEGF, 100 nM biotinylated Aβ1-42, 37° C., 24 hours
T2 sequence (P15692 27-191 isoform P15692-4 limits assumed): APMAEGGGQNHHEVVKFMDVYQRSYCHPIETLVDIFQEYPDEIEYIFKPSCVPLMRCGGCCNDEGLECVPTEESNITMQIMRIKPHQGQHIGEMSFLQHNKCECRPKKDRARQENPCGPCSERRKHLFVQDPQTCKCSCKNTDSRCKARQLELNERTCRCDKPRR
Description: The level of the formation of the Aβ-VEGF binding was measured and compared with that of control without triamterene.

VEGF receptor, KDR-Fc = VEGF receptor, KDR-Fc (Homo sapiens, UniProt P35968); conditions: VEGF 12 nM immobilized; 0.3 nM KDR-Fc
Sequence of VEGF receptor, KDR-Fc (P35968 with tags, fused parts or gaps limits assumed): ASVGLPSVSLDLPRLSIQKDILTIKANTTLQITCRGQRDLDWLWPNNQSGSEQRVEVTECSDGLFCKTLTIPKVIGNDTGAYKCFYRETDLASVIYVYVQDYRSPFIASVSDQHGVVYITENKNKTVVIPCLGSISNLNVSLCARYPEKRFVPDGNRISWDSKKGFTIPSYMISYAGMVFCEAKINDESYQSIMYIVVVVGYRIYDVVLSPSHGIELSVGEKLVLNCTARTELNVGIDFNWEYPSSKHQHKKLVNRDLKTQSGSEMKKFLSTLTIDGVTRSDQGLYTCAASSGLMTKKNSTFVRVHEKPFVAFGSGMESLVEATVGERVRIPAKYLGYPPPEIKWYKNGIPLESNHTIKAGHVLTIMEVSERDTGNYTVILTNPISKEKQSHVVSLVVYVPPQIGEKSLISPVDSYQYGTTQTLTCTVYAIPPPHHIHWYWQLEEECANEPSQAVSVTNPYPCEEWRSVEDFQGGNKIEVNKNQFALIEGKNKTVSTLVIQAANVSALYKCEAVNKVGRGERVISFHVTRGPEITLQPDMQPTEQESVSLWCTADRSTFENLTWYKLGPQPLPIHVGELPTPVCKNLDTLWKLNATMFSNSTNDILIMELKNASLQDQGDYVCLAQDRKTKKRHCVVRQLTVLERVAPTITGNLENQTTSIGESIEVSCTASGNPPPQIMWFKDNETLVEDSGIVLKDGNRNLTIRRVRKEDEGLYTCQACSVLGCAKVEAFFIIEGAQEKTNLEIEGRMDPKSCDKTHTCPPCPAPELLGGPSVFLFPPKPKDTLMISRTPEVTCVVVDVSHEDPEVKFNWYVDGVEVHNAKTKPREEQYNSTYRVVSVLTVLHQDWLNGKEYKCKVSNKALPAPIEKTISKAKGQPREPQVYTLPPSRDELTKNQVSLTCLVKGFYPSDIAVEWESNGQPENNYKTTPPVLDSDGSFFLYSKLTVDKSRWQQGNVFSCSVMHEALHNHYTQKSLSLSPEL
Description: After removing unbound KDR-Fc, the bound KDR-Fc was determined by binding of mouse anti-Fc antibody followed by anti-mouse antibody conjugated with horse radish peroxidase.

Aβ1-42 [3] = target: T3, Aβ1-42 (Homo sapiens, UniProt P05067); test: Thioflavin T assay of Aβ aggregation; assay type: biochemical; conditions: 24 hours; for inhibition of aggregation of Aβ (thioflavin T): 50 μM Aβ1-42, 37° C., VEGF or GST-HBD at various concentrations
T3 construct: Aβ1-40, Aβ1-42, and Aβ40-1 (BACHEM, Bubendorf, Switzerland) were immobilized on a CM5 sensor chip; purchased BACHEM
Description: 10 μM of thioflavin T was added to the mixture and sufficiently mixed. Then, the fluorescence of the mixture was measured at Ex=444 nm and Em=485 nm, and then, compared with that of control of Aβ incubated alone, to determine the affection on aggregation of Aβ.
50 μM Aβ was incubated at 37° C. for 24 hours together with triamterene of 0 μM, 4 μM, 20 μM or 100 μM, respectively, to generate aggregation of Aβ. Then, the degree of aggregation was determined by the thioflavin T assay as illustrated in Example 11.

immobilized Aβ aggregate = target: T4, immobilized Aβ aggregate (Homo sapiens, UniProt P05067); test: In vitro VEGF trapping on immobilized Aβ aggregate; assay type: binding; conditions: 50 μM Aβ aggregated 24 hours and dried on well; radiolabeled VEGF; no inhibitor
T4 construct: Aβ (Aβ) is the major component of senile plaques and is derived from the amyloid precursor protein by proteolytic cleavage
Description: The system is simulating VEGF trapping on Aβ plaques under in vitro condition. In the in vitro assay system, 50 μM of Aβ was aggregated at 37° C. for 24 hours and immobilized on the bottom of a well by drying under air for overnight, and then, VEGF labeled with a radioisotope was added to the well, to form VEGF-Aβ binding. After removing unbound VEGF, bound VEGF was determined by measuring radioactivity. […] If certain chemical has inhibitory activity against VEGF-Aβ binding, then the chemical will decrease the amount of VEGF trapped on immobilized Aβ aggregate.

PC12 cells [4] = test: DCF fluorescence, generation of reactive oxygen species by Aβ; assay type: cell-based; conditions: PC12 cells 3 hours; for generation of the reactive oxygen species, treatment alone: 5 μM VEGF165 or 5 μM GST-HBD alone; for generation of the reactive oxygen species by Aβ, treatment together with Aβ: 5 μM VEGF165 or 5 μM GST-HBD with 5 μM Aβ1-42
Description: 5 μM VEGF165 or 5 μM GST-HBD and 5 μM Aβ1-42 were mixed and incubated at 37° C. for 24 hours. The mixture was added to PC12 cells (6×10^4, cells/well, kindly provided by Dr. Pann-Ghill Suh), and then left for reaction at 37° C. for 3 hours. Then, 100 μM of DCF solution was added to the resulted mixture, reacted for 30 minutes, and then washed with PBS (phosphate-buffered saline). The obtained cells were observed through a fluorescent microscope, and DCF fluorescence was measured, to calculate the level of generation of the reactive oxygen species.

Aβ40-1 [5] = system: Aβ40-1
Sequence of Aβ40-1 (as listed by the source): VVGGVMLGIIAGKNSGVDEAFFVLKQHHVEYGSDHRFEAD
Description: (§1) Aβ1-40, Aβ1-42, and Aβ40-1 (BACHEM, Bubendorf, Switzerland) were immobilized on a CM5 sensor chip (BIAcore AB, Uppsala, Sweden) with an amine coupling kit. Alpha2-macroglobulin, alpha1-antichymotrypsin, serum amyloid P component, apolipoprotein E4, and VEGF165 (100 nM) were allowed to bind to the immobilized Aβ at a flow rate of 10 μl/min and sensorgrams were recorded in real time.

Aβ1-40 [6] = target: T5, Aβ1-40 (Homo sapiens, UniProt P05067); test: 125I-VEGF competition binding to immobilized Aβ peptide in microtiter wells; conditions: read-out: dissociation constant (KD) of VEGF for Aβ; immobilized Aβ1-40; 50 pM 125I-VEGF with increasing unlabeled VEGF; KD=IC50-[125I-VEGF]
T5 construct: Aβ1-40, Aβ1-42, and Aβ40-1 (BACHEM, Bubendorf, Switzerland) were immobilized on a CM5 sensor chip; purchased BACHEM

[7] = Keyt et al., J. Biol. Chem. 1996; cited from earlier work
Aβ1-40 [8] = target: T5, Aβ1-40; test: Surface plasmon resonance binding to Aβ peptide on CM5 sensor chip; conditions: 100 nM protein; versus alpha2-macroglobulin, alpha1-antichymotrypsin, serum amyloid P component, apolipoprotein E4
Description: as §1

Aβ1-42 [9] = target: T3, Aβ1-42; test: as above; conditions: 100 nM protein; versus alpha2-macroglobulin, alpha1-antichymotrypsin, serum amyloid P component, apolipoprotein E4
Description: as §1

Aβ1-40 [10] = target: T5, Aβ1-40; test: Effect of VEGF on the aggregation rate of Aβ, FITC-Aβ1-40 fluorescence in pellet; assay type: biochemical; conditions: VEGF 1 μM; 50 μM and 100 μM Aβ1-40; 37° C.
Aβ1-40 [11] = target: T5, Aβ1-40; test: Co-aggregation assay of 125I-VEGF165 with Aβ, radioactivity in pellet; assay type: binding; conditions: 100 μM Aβ1-40, 1 nM 125I-VEGF165, 37° C., 2 days; approximately 60% of Aβ alone in pellet
Description: (§2) The aggregation of Aβ1-40 was determined as described with some modifications (Chang et al., Brain Res Brain Res Protoc 2000;6(1-2):6-12). After a two day incubation of Aβ1-40 (100 μM) with FITC-conjugated Aβ1-40 (1 μM) in 50 mM MES, pH 5.8, at 37° C., the mixture was centrifuged, and fluorescence in the pellet was measured. […] Then the mixtures were centrifuged and radioactivity in pellet was determined in a gamma-counter. […] The radioactivity in the pellet was determined.

Aβ/VEGF co-aggregate = target: T6, Aβ/VEGF co-aggregate (Homo sapiens, UniProt P05067); test: Dissociation assay of VEGF from Aβ/VEGF co-aggregate; assay type: binding; conditions: after 3 days; 50 mM MES, pH 5.8
T6 construct: purchased BACHEM (Aβ peptides); Amersham Pharmacia Biotech (125I-VEGF)
Description: The radioactivity in the supernate was determined. […] The mixtures were separated by SDS-PAGE (10%) and autoradiographed.

pre-aggregated Aβ1-40 = target: T7, pre-aggregated Aβ1-40 (Homo sapiens, UniProt P05067); test: Binding of 125I-VEGF to pre-aggregated Aβ, immediate centrifugation; conditions: 50 μM Aβ preincubated for 2 days, 1 nM 125I-VEGF, immediately centrifuged
T7 construct: Aβ1-40, Aβ1-42, and Aβ40-1 (BACHEM, Bubendorf, Switzerland) were immobilized on a CM5 sensor chip; purchased BACHEM
Description: as §2

Aβ40-1 [12] = conditions: 100 μM Aβ40-1, 1 nM 125I-VEGF165, 37° C., 2 days; P=0.0076
Description: as §2

Aβ [13] = target: T1, Aβ; test: Binding of growth factors to Aβ; conditions: among NGF, bFGF, PDGF, VEGF and midkine
Aβ [14] = target: T1, Aβ; test: Inhibition of the aggregation of Aβ by Aβ-VEGF binding inhibitors; assay type: biochemical
Aβ-VEGF binding = target: T8, Aβ-VEGF binding (Homo sapiens, UniProt P15692); test: Search for an inhibitor of Aβ-VEGF binding
T8 construct: Aβ (Aβ) is the major component of senile plaques and is derived from the amyloid precursor protein by proteolytic cleavage
T8 sequence (P15692 27-191 isoform P15692-4 limits assumed): T2 sequence (P15692 27-191 isoform P15692-4 limits assumed)

[15] = target: T9, VEGF/Aβ interaction (GST-heparin-binding domain, biotinylated Aβ1-42) (Homo sapiens, UniProt P15692); test: Heparin inhibition of biotinylated Aβ1-42 binding to immobilized GST-heparin-binding domain; conditions: GST-heparin-binding domain 100 nM immobilized; biotinylated Aβ1-42 50 nM
T9 construct: made in house
T9 sequence (P15692 137-191 isoform P15692-4): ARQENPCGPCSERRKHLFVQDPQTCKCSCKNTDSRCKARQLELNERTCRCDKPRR
Description: After removing unbound biotinylated Aβ, the bound peptide was determined with steptavidin conjugated with horse radish peroxidase.

PC12 cells [16] = test: Ethidium fluorescence assay, cytotoxicity of Aβ; assay type: cell-based; conditions: 5 μM Aβ1-42 incubated with VEGF or GST-HBD at 37° C. for 24 hours; PC12 cells 24 hours
Description: The mixture was added to PC12 cells (2×10^4, cells/well, kindly provided by Dr. Pann-Ghill Suh), and then left for reaction at 37° C. for 24 hours. Then, equal volume of 4 μM ethidium homodimer-1 was added to the resulted mixture, and reacted for 30 minutes. Thereafter, the fluorescence of the mixture was measured at Ex=530 nm and Em=645 nm, and then, compared with that of control of non-treated PC12 cells, to determine the cytotoxicity of Aβ.

PC12 cells [17] = test: MTT assay, cytotoxicity of Aβ; assay type: cell-based; parameters: dose or concentration left out as unconfirmed; conditions: Aβ1-42 incubated with VEGF165 or GST-HBD at 37° C. for 24 hours; PC12 cells 24 hours
Description: The mixture was added to PC12 cells (2×10^4, cells/well, kindly provided by Dr. Pann-Ghill Suh), and then left for reaction at 37° C. for 24 hours. Then, 1/10 volume of 5 mg/ml MTT solution was added to the resulted mixture, and reacted for 2 hours. The obtained cells were lysed by 25% dimethylformamide/10% SDS. Thereafter, the absorbance of the lysate was measured at 570 nm, and then, compared with that of control of non-treated PC12 cells, to determine the reduction of MTT, and thereby determining the viability of the cells.

immobilized VEGF165 = target: T10, immobilized VEGF165 (Homo sapiens, UniProt P15692); test: Determination of VEGF binding region in Aβ, competition by Aβ fragments; conditions: Aβ1-42 50 nM; 30 μM or 50 μM Aβ fragment
T10 sequence (P15692 27-191 isoform P15692-4): T2 sequence (P15692 27-191 isoform P15692-4 limits assumed)
Description: After removing unbound Aβ, the bound Aβ was determined by binding of rabbit anti-Aβ antibody followed by anti-rabbit antibody conjugated with horse radish peroxidase. […] The bound biotinylated Aβ was determined with streptavidin conjugated with horse radish peroxidase.

GST-CHBD: C-terminal half (amino acid 29-55) of heparin-binding domain fused to GST (CKNTDSRCKARQLELNERTCRCDKPRR; cysteine pairing not given here; also: fused to GST)
binding of Aβ to immobilized GST-fusion protein (Aβ [1]): Aβ binds to C-terminal sub-domain of heparin-binding domain

Nc1nc(N)c2nc(-c3ccccc3)c(N)nc2n1 [triamterene]
inhibition of the Aβ-VEGF binding [2]: concentration-dependently inhibits the binding between Aβ and VEGF
affection on the VEGF-VEGF receptor binding (VEGF receptor, KDR-Fc): no affection on the VEGF-VEGF receptor binding regardless of the concentration
affection on aggregation of Aβ (thioflavin T) (Aβ1-42 [3]; 50 μM Aβ, 37° C., triamterene 0, 4, 20 or 100 μM): no affection on aggregation of Aβ regardless of the concentration

VEGF
VEGF trapping into Aβ, share of VEGF added (immobilized Aβ aggregate): about 70%
generation of the reactive oxygen species, treatment alone (PC12 cells [4]): no effect on the generation of the reactive oxygen species
generation of the reactive oxygen species by Aβ, treatment together with Aβ (PC12 cells [4]): inhibitory effect on the generation of the reactive oxygen species by Aβ
binding to Aβ40-1 (reverse peptide) (Aβ40-1 [5]): did not bind
Kd (Aβ1-40 [6]): ~0.05 nM
bioactivity relative to VEGF121 [7]: 100 fold
binding to immobilized Aβ1-40 (surface plasmon resonance) (Aβ1-40 [8]): much more strongly than other molecules that are known to bind to Aβs
binding to immobilized Aβ1-42 (surface plasmon resonance) (Aβ1-42 [9]): much more strongly than other molecules that are known to bind to Aβs
influence of VEGF on the aggregation of Aβ1-40 (time course) (Aβ1-40 [10]): no significant influence
proportion of 125I-VEGF in the pellet after incubation with Aβ1-40 (Aβ1-40 [11]): About the same proportion
VEGF released from the Aβ/VEGF complex (Aβ/VEGF co-aggregate): less than 1.5%
binding of VEGF to pre-aggregated Aβ (pelleted by centrifugation) (pre-aggregated Aβ1-40): bound to pre-aggregated Aβ
sedimentation of VEGF in presence of Aβ40-1 (Aβ40-1 [12]): did not cause extensive sedimentation of VEGF
inhibition of aggregation of Aβ (thioflavin T) (Aβ1-42 [3]): inhibit aggregation of Aβ depending on the concentration
binding of growth factor to Aβ (Aβ [13]): bound to A

fucoidan
activity to inhibit the aggregation of Aβ by itself (Aβ [14]): additional activity to inhibit the aggregation of Aβ by itself
inhibitor of Aβ-VEGF binding (search) (Aβ-VEGF binding): searched as an inhibitor of Aβ-VEGF binding

heparin
IC50, inhibition of binding of biotinylated Aβ1-42 to heparin-binding domain [15]: ~0.025 mg/L

HBD: full heparin-binding domain of VEGF165 (SEQ ID NO:2) fused to GST (ARQENPCGPCSERRKHLFVQDPQTCKCSCKNTDSRCKARQLELNERTCRCDKPRR; cysteine pairing not given here; also: fused to GST)
inhibition of the cytotoxicity of Aβ (ethidium homodimer-1 fluorescence) (PC12 cells [16]): inhibit the cytotoxicity of Aβ depending on the concentration
generation of the reactive oxygen species, treatment alone (PC12 cells [4]): no effect on the generation of the reactive oxygen species
generation of the reactive oxygen species by Aβ, treatment together with Aβ (PC12 cells [4]): inhibitory effect on the generation of the reactive oxygen species by Aβ
inhibition of the cytotoxicity of Aβ (MTT reduction) (PC12 cells [17]): exhibits the activity to inhibit the cytotoxicity of Aβ
inhibition of aggregation of Aβ (thioflavin T) (Aβ1-42 [3]): inhibit aggregation of Aβ depending on the concentration

Aβ25-35: partial fragment of Aβ, residues 25-35 of SEQ ID NO:4 (GSNRGAIIGLM; listed as Homo sapiens)
competition with Aβ for binding to immobilized VEGF165 (immobilized VEGF165): competes with Aβ for its binding to immobilized VEGF165
